In US20160214958A1, “COMPOUNDS AND USE FOR TREATING CANCER” (GLIONOVA AB, priority 2013, published 2016):
Where two headings read alike, the source gives them in different places.

What was measured:
[1] = test system: ex-vivo adult zebrafish hearts; test: Cardiotoxicity, ex vivo adult zebrafish hearts; settings: frequency spectral analysis of heart beating
Experimental: A xenotransplantation model for GBM in zebrafish was developed to test the capacity of the 17 hits to prevent tumor formation in vivo. Three thousand U3013MG GSCs labeled with cell tracker red were injected intracranially into the ventricle of 48-52 hpf larvae. Each of the 17 hits were administered to the egg water at the lowest effective in vitro cytotoxic concentration identified and tumor development assessed 10 days later. This assay allowed rapid evaluation of the compounds in an in vivo setup, features such as the acute/chronic toxicity effect of the compounds on zebrafish and the transplanted cells, transplanted cell proliferation and migration of cells into brain parenchyma, compounds penetrance into the zebrafish tissue were all parallely evaluated. […] Cardiovascular toxicity was assessed using a recently established model based on frequency spectral analysis of heart beating in ex-vivo adult zebrafish hearts (Kitambi et al., (2012) BMC Physiol. 12, 3).
A zebrafish model was used to assess the developmental and cardiac toxicity of advanced hits from the screen. […] The embryos were monitored every day and allowed to grow for 5 days before the phenotype was recorded. […] Adult hearts from male zebrafish were exposed to compounds and the effect on the heart beat was recorded and analysed using developed methods (Kitambi et al., (2012) BMC Physiol. 12, 3).

[2] = test system: histone H3 trimethylation at lysine 27 (H3K27me3); test: Western blot of GSC for H3K27me3; format: cell-based, human; settings: GSC treated for 5 min to 26 hours
Experimental: Cell extracts were immunoblotted for phosphor-MKK4 (P-MKK4) and histone H3 trimethylation at lysine 27 (H3K27me3).
Whole-cell extracts were prepared in SDS-buffer (25 mM Tris-HCl, pH 7.5, 1 mM EDTA, protease inhibitor cocktail (Roche), and phosphatase inhibitors [2 mM sodium orthovanadate, 20 mM beta-glycerolphosphate], and 1% SDS). The samples were analysed by western blot as described previously (Aranda et al. (2008) Mol Cell Biol, 28, 5899-5911) with the following antibodies: anti-Histone H3 (Abcam), antitrimethyl(Lys27)-Histone H3 (Millipore) and anti-phospho(S257/Thr261)-SEK1/MKK4 (R&D Systems).

[3] = Pharmacokinetic evaluation of Vacquinol-1 stereoisomers, plasma and brain; format: in vivo, NMRI (SR/RS) or BALB/c (Vrac) mice; settings: for Cmax Brain / tlast Brain / tlast Plasma / AUC(0-t) / half-life / Tmax / Cmax: mice
Experimental: The pharmacokinetics of Vacquinol-1 (racemic), Vacquinol-1RS and Vacquinol-1SR, were determined in NMRI (SR/RS) or BALB/c (Vrac) mice following single intravenous (i.v.) or per oral (p.o) administration of 2 or 20 mg/kg Vacquinol-1, respectively. Blood and brain samples were taken from animals at the following nominal time points: 15, 30, and 60 minutes, and 2, 4, 6, 8, 24, 48, 72 and 144 hours after dosing (n=3/time-point). Bioanalytical quantification of Vacquinol-1 was analysed in plasma and brain samples by a UPLC-MS/MS.
Pharmacokinetics were calculated by non-compartmental analysis (NCA) from composite (mean) profiles. Nominal sampling times and dose levels have been used for the NCA calculations.

[4] = In vivo pharmacokinetics studies of S10 (iv, ip, per oral); set-up: species or system male BALB/c Mice; settings: male, BALB/c, mouse, ip and per oral administration
Experimental: The bioavailability of S10 by oral and intraperitoneal injection in vivo was investigated. […] In a second delivery regimen, treatment was performed per orally (20 mg/kg) twice daily for five days. Treatment started at a terminal stage of GBM, i.e. six weeks after engraftment of U3013M GSCs and median survival from the time of treatment initiation and the Hazard ratio were scored.
In vivo pharmacokinetic studies of S10 were performed at SAI Life Sciences Ltd., Hyderabad, India to determine the plasma pharmacokinetics and brain distribution of S10 following a single intravenous, intraperitoneal and oral administration in male BALB/c Mice. Blood samples (approximately 60 μL) were collected from retro-orbital plexus of each mouse. The plasma and brain samples were obtained at 0.08, 0.25, 0.5, 1, 2, 4, 8, 24, 48, 72 and 144 hr (i.v.); 0.08, 0.25, 0.5, 1, 2, 4, 8 and 24 hour (i.p.) and 0.25, 0.5, 1, 2, 4, 6, 8, 24, 48, 72 and 144 hr (p.o.) post dosing. Plasma was harvested by centrifugation of blood and stored at −70° C. until analysis. Immediately after collection of blood, brain samples were collected from each mouse. Tissue samples (brain) were homogenized using ice-cold phosphate buffer saline (pH 7.4) and homogenates were stored below −70° C. until analysis. […] Plasma and brain samples were quantified using LC-MS/MS method LLOQ=1.03 ng/mL for plasma and LLOQ=10.25 ng/mL for brain. […]

[5] = Tolerance of oral dosing of S10; format: in vivo; settings: 20 mg/kg/day oral gavage for one week, weight loss and signs of distress

Q: For `OC(c1cc(-c2ccc(Cl)cc2)nc2ccccc12)C1CCCCN1` (racemic) [Compound S10, (2-(4-chlorophenyl)quinolin-4-yl)(piperidin-2-yl)methanol], which “cardiac toxicity, heart beating” value [1] is on record?
A: small or no effects

Q: And the “effect on H3K27me3” value [2]?
A: lack of inhibition effects

Q: What about the “Cmax Brain” value ([3]; 2 mg/kg i.v.) of the same compound?
A: 514 ng/mL

Q: What about the “tlast Brain” value ([3]; 2 mg/kg i.v.) of the same compound?
A: 144 h

Q: And the “tlast Plasma” value ([3]; 2 mg/kg i.v.)?
A: 144 h

Q: And the “Cmax Brain” value ([3]; 20 mg/kg p.o.)?
A: 1860 ng/mL

Q: And the “tlast Brain” value ([3]; 20 mg/kg p.o.)?
A: 144 h

Q: And the “tlast Plasma” value ([3]; 20 mg/kg p.o.)?
A: 144 h

Q: And the Kp ([3]; NMRI (single stereoisomers SR/RS), BALB/c (racemate), mouse, brain and plasma, 20 mg/kg, after oral dosing, read-out: relative brain/plasma exposure ratio (AUClast(brain)/AUClast(plasma)))?
A: 0.6

Q: And the AUC(0-t) ([3]; NMRI (single stereoisomers SR/RS), BALB/c (racemate), mouse, brain, iv, 2 mg/kg i.v., read-out: AUClast Brain)?
A: 20.4 µg·h/mL

Q: What about the half-life ([3]; NMRI (single stereoisomers SR/RS), BALB/c (racemate), mouse, brain, iv, 2 mg/kg i.v., read-out: t1/2 Brain (converted)) of the same compound?
A: 63 h

Q: And the AUC(0-t) ([3]; NMRI (single stereoisomers SR/RS), BALB/c (racemate), mouse, brain, po, 20 mg/kg p.o., read-out: AUClast Brain)?
A: 167 µg·h/mL

Q: What about the Tmax ([3]; NMRI (single stereoisomers SR/RS), BALB/c (racemate), mouse, brain, po, 20 mg/kg p.o., read-out: tmax Brain) of the same compound?
A: 48 h

Q: And the Cmax ([3]; NMRI (single stereoisomers SR/RS), BALB/c (racemate), mouse, plasma, iv, 2 mg/kg i.v.)?
A: 467 ng/mL

Q: What about the AUC(0-t) ([3]; NMRI (single stereoisomers SR/RS), BALB/c (racemate), mouse, plasma, iv, 2 mg/kg i.v., read-out: AUClast Plasma) of the same compound?
A: 64.5 µg·h/mL

Q: What about the half-life ([3]; NMRI (single stereoisomers SR/RS), BALB/c (racemate), mouse, plasma, iv, 2 mg/kg i.v., read-out: t1/2 Plasma (converted)) of the same compound?
A: 52 h

Q: What about the Cmax ([3]; NMRI (single stereoisomers SR/RS), BALB/c (racemate), mouse, plasma, po, 20 mg/kg p.o.) of the same compound?
A: 3280 ng/mL

Q: And the AUC(0-t) ([3]; NMRI (single stereoisomers SR/RS), BALB/c (racemate), mouse, plasma, po, 20 mg/kg p.o., read-out: AUClast Plasma)?
A: 292 µg·h/mL

Q: What about the Tmax ([3]; NMRI (single stereoisomers SR/RS), BALB/c (racemate), mouse, plasma, po, 20 mg/kg p.o., read-out: tmax Plasma) of the same compound?
A: 24 h

Q: And the “Cmax exposures ratio (Cmax(brain)/Cmax(plasma))” value ([3]; after oral dosing)?
A: 0.6

Q: And the bioavailability ([4]; plasma, following iv, read-out: bioavailability F)?
A: 69%

Q: And the half-life ([4]; plasma and brain exposure following iv, read-out: half-life t1/2 (converted))?
A: 20 h

Q: And the “tolerance of oral dosing” value [5]?
A: well tolerated
